For one assay, the system named is B7-H1/P815 cells. As to the kind of experiment: Staurosporine induced apoptosis (annexin V/PI). It counts as cell-based, mouse. The note with it: Staurosporine (STP 1 μM), control Ig-treated cells.
In assay [1] the target is wild type murine B7-H1 expressed on P815 cells (B7-H1/P815) (mouse) (UniProt Q9EP73). In words: cell-based or functional assay.
wild type murine B7-H1 expressed on P815 cells (B7-H1/P815) (mouse), sequence (Q9EP73 19-290): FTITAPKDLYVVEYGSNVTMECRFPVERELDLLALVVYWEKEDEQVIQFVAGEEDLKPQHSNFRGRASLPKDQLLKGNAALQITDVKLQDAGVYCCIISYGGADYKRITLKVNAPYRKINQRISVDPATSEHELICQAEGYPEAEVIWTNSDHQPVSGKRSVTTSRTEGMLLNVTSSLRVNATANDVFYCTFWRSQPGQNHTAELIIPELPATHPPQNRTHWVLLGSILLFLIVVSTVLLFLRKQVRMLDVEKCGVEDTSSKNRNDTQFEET

Description for B7-H1/P815 cells: PD-1Ig fusion protein or control IgG were coated on 96 well-plates for 18 hr at 4° C. Full length B7-H1/P815 cells were cultured with STP (1 μM) in the well coated PD-1Ig or control IgG. Cells were harvested after 24 hr and stained with annexin V (BD PharMingen) at 5 μl/test, propidium iodide (PI) (Sigma-Aldrich) at 5 μg/ml for 1 hour and monoclonal antibodies against H-2D^d. Apoptosis was calculated as the percentage of annexin V+PI-cells gated in the H-2D^d+ fractions.
B7-H1 was assayed to determine whether it confers resistance to drugs which induce apoptosis of tumor cells. […] Staurosporine is often used as a general method for inducing apoptosis of tumor cells.

For the molecule `CN[C@@H]1C[C@H]2O[C@@](C)([C@@H]1OC)n1c3ccccc3c3c4c(c5c6ccccc6n2c5c31)C(=O)NC4` [Staurosporine], the “apoptosis of B7-H1/P815 cells” value in the assay on B7-H1/P815 cells is 74.9%. “wild type murine PD-1 expressed on transduced PD-1KO 2C CTLs (PD-1/PD-1^02C) (from UniProt Q02242 25-288) (receptor)” returned a cytolytic activity of CTLs against B7-H1/P815 targets in assay [1] of 50%.
